One cell line from the supplement of paper PMC10307832 can be followed below.

What all share (assay): relative viability (nuclei count vs DMSO), 5 days (fraction); higher = more cells survive
Compound in the assay “VE-821 + Palbociclib”: CS(=O)(=O)c1ccc(-c2cnc(N)c(C(=O)Nc3ccccc3)n2)cc1 [VE-821] + CC(=O)c1c(C)c2cnc(Nc3ccc(N4CCNCC4)cn3)nc2n(C2CCCC2)c1=O [Palbociclib] (partner 0.5 µM)
The method, boiled down: (§1)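 Lung cancer cell lines were seeded in 1536-well plates and dosed by pin tool the next day, with either a single drug or a fixed anchor-drug dose combined with five library-drug doses (not always all listed) spaced in √10 steps. Five days later, one step fixed the cells and stained their nuclei (final 0.05% Triton X-100, 1% formaldehyde, 1 ug/ml Hoechst), and nuclei were counted on 4× images. Relative viability is the nuclei count in treated wells divided by the count in vehicle wells, and each value is the median of duplicate plates.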

Compound in the assay “VE-821 + Bortezomib”: CS(=O)(=O)c1ccc(-c2cnc(N)c(C(=O)Nc3ccccc3)n2)cc1 [VE-821] + CC(C)C[C@H](NC(=O)[C@H](Cc1ccccc1)NC(=O)c1cnccn1)B(O)O [Bortezomib] (partner 0.002 µM)
The method, boiled down: as §1

Compound in the assay “VE-821 + Decitabine”: CS(=O)(=O)c1ccc(-c2cnc(N)c(C(=O)Nc3ccccc3)n2)cc1 [VE-821] + Nc1ncn([C@H]2C[C@H](O)[C@@H](CO)O2)c(=O)n1 [Decitabine] (partner 2 µM)
The essentials: as §1

Compound in the assay “Vismodegib + OSI-027”: CS(=O)(=O)c1ccc(C(=O)Nc2ccc(Cl)c(-c3ccccn3)c2)c(Cl)c1 [Vismodegib] + COc1cccc2cc(-c3nc([C@H]4CC[C@H](C(=O)O)CC4)n4ncnc(N)c34)[nH]c12 [OSI-027] (partner 0.5 µM)
The essentials:
as §1

On to UMC-11, for which the relative viability in the assay with VE-821 + Palbociclib (first compound 0.08 µM) is 0.339; with VE-821 + Palbociclib (first compound 0.253 µM), 0.309; in the assay with VE-821 + Palbociclib (first compound 0.8 µM), 0.338; with VE-821 + Palbociclib (first compound 2.53 µM), 0.377; with VE-821 + Palbociclib (first compound 8 µM), 0.299; in the assay with VE-821 + Bortezomib (first compound 0.08 µM) it was 0.873. Besides, the relative viability is 0.707 with VE-821 + Bortezomib (first compound 0.253 µM); 0.794 with VE-821 + Bortezomib (first compound 0.8 µM); 0.789 in the assay with VE-821 + Bortezomib (first compound 2.53 µM); 0.641 in the assay with VE-821 + Bortezomib (first compound 8 µM); 0.687 in the assay with VE-821 + Decitabine (first compound 0.08 µM); 0.617 with VE-821 + Decitabine (first compound 0.253 µM). In addition, the relative viability stood at 0.583 with VE-821 + Decitabine (first compound 0.8 µM); 0.664 in the assay with VE-821 + Decitabine (first compound 2.53 µM); 0.479 with VE-821 + Decitabine (first compound 8 µM); 0.499 in the assay with Vismodegib + OSI-027 (first compound 0.08 µM); 0.468 with Vismodegib + OSI-027 (first compound 0.253 µM); 0.408 with Vismodegib + OSI-027 (first compound 0.8 µM). Also, the relative viability with Vismodegib + OSI-027 (first compound 2.53 µM) was found to be 0.43; in the assay with Vismodegib + OSI-027 (first compound 8 µM), 0.46.
